Experimental data from patent US20220289715A1, “PESTICIDALLY ACTIVE PYRAZINE-AMIDE COMPOUNDS” (priority 2019, published 2022).
Each block holds one compound with its values, some of them ahead of it.

What was measured:
[1] = tested on: Chilo suppressalis (Striped Rice Stemborer); test: Example B3: Chilo suppressalis, artificial diet; assay type: in vivo; settings: 144 h, application rate of 200 ppm, L2 larvae, 6 days after infestation, read-out: control in at least one of the three categories (mortality, anti-feedant effect, or growth inhibition)
Method: Example B3: Chilo suppressalis (Striped Rice Stemborer)
24-well microtiter plates with artificial diet were treated with aqueous test solutions prepared from 10,000 ppm DMSO stock solutions by pipetting. After drying, the plates were infested with L2 larvae (6-8 per well). The samples were assessed for mortality, anti-feeding effect, and growth inhibition in comparison to untreated samples 6 days after infestation. Control of Chilo suppressalis by a test sample is given when at least one of the categories mortality, anti-feedant effect, and growth inhibition is higher than the untreated sample.

[2] = tested on: Plutella xylostella (Diamond Back Moth); test: Example B4: Plutella xylostella, artificial diet, 24-well; assay type: in vivo; settings: 192 h, application rate of 200 ppm, eggs, 8 days after infestation, read-out: control in at least one of the two categories (mortality or growth inhibition)
Method: Example B4: Plutella xylostella (Diamond Back Moth)
24-well microtiter plates with artificial diet were treated with aqueous test solutions prepared from 10,000 ppm DMSO stock solutions by pipetting. After drying, Plutella eggs were pipetted through a plastic stencil onto a gel blotting paper and the plate was closed with it. The samples were assessed for mortality and growth inhibition in comparison to untreated samples 8 days after infestation.
(§1) The following compounds gave an effect of at least 80% control in at least one of the two categories (mortality or growth inhibition) at an application rate of 200 ppm: […]

[3] = tested on: Myzus persicae (Green Peach Aphid); test: Example B5: Myzus persicae, intrinsic activity; assay type: in vivo; settings: 120 h, test rate of 12 ppm, 5 days after infestation
Excerpt: Example B5: Myzus persicae (Green Peach Aphid). Intrinsic Activity
Test compounds prepared from 10,000 ppm DMSO stock solutions were applied by pipette into 24-well microtiter plates and mixed with sucrose solution. The plates were closed with a stretched Parafilm. A plastic stencil with 24 holes was placed onto the plate and infested pea seedlings were placed directly on the Parafilm. The infested plate was closed with a gel blotting paper and another plastic stencil and then turned upside down. The samples were assessed for mortality 5 days after infestation.

[4] = tested on: Spodoptera littoralis (Egyptian Cotton Leaf Worm); test: Example B6: Spodoptera littoralis, spray on cotton leaf discs; assay type: in vivo; settings: foliar, 72 h, application rate of 200 ppm, L1 larvae, 3 days after infestation, read-out: control in at least one of the three categories (mortality, anti-feedant effect, or growth inhibition)
Method: Example B6: Spodoptera littoralis (Egyptian Cotton Leaf Worm)
Cotton leaf discs were placed onto agar in 24-well microtiter plates and sprayed with aqueous test solutions prepared from 10,000 ppm DMSO stock solutions. After drying the leaf discs were infested with five L1 larvae. The samples were assessed for mortality, anti-feeding effect, and growth inhibition in comparison to untreated samples 3 days after infestation. Control of Spodoptera littoralis by a test sample is given when at least one of the categories mortality, anti-feedant effect, and growth inhibition is higher than the untreated sample.

[5] = tested on: Plutella xylostella (Diamondback Moth); test: Example B9: Plutella xylostella, artificial diet, 96-well; assay type: in vivo; settings: 216 h, application rate of 500 ppm, eggs/L1 larvae, 9 days after infestation
Method: Example B9: Plutella xylostella (Diamondback Moth)
96-well microtiter plates containing artificial diet were treated with aqueous test solutions, prepared from 10,000 ppm DMSO stock solutions, by a liquid handling robot. After drying, eggs (˜30 per well) were infested onto a netted lid which was suspended above the diet. The eggs hatch and L1 larvae move down to the diet. The samples were assessed for mortality 9 days after infestation.
The following compounds gave an effect of at least 80% mortality at an application rate of 500 ppm: […]

[6] = tested on: Myzus persicae (Green Peach Aphid); test: Example B10: Myzus persicae, sucrose solution, 96-well; assay type: in vivo; settings: 120 h, application rate of 50 ppm, 5 days after infestation
Excerpt: Example B10: Myzus persicae (Green Peach Aphid)
Test compounds prepared from 10,000 ppm DMSO stock solutions were applied by a liquid handling robot into 96-well microtiter plates and mixed with a sucrose solution. Parafilm was stretched over the 96-well microtiter plate and a plastic stencil with 96 holes was placed onto the plate. Aphids were sieved into the wells directly onto the Parafilm. The infested plates were closed with a gel blotting card and a second plastic stencil and then turned upside down. The samples were assessed for mortality 5 days after infestation.

[7] = tested on: Diabrotica balteata (Corn Root Worm); test: Example B1: Diabrotica balteata, spray on maize sprouts; assay type: in vivo; settings: 96 h, application rate of 200 ppm, L2 larvae, 4 days after infestation, read-out: control in at least one of the two categories (mortality or growth inhibition)
Method: Example B1: Diabrotica balteata (Corn Root Worm)
Maize sprouts placed onto an agar layer in 24-well microtiter plates were treated with aqueous test solutions prepared from 10,000 ppm DMSO stock solutions by spraying. After drying, the plates were infested with L2 larvae (6 to 10 per well). The samples were assessed for mortality and growth inhibition in comparison to untreated samples 4 days after infestation.
as §1

[8] = tested on: Euschistus heros (Neotropical Brown Stink Bug); test: Example B2: Euschistus heros, spray on soybean leaves; assay type: in vivo; settings: 120 h, application rate of 200 ppm, N2 nymphs, 5 days after infestation, read-out: control in at least one of the two categories (mortality or growth inhibition)
Method: Example B2: Euschistus heros (Neotropical Brown Stink Bug)
Soybean leaves on agar in 24-well microtiter plates were sprayed with aqueous test solutions prepared from 10,000 ppm DMSO stock solutions. After drying the leaves were infested with N2 nymphs. The samples were assessed for mortality and growth inhibition in comparison to untreated samples 5 days after infestation.
as §1

[9] = tested on: Spodoptera littoralis (Egyptian Cotton Leaf Worm); test: Example B7: Spodoptera littoralis, uptake by lettuce roots from agar; assay type: in vivo; settings: 144 h, test rate of 12.5 ppm, absorbed by lettuce roots, eggs, 6 days after infestation, read-out: control in at least one of the three categories (mortality, anti-feeding, or growth inhibition)
Excerpt: Example B7: Spodoptera littoralis (Egyptian Cotton Leaf Worm)
Test compounds were applied by pipette from 10,000 ppm DMSO stock solutions into 24-well plates and mixed with agar. Lettuce seeds were placed onto the agar and the multi well plate was closed by another plate which contained also agar. After 7 days the compound was absorbed by the roots and the lettuce grew into the lid plate. The lettuce leaves were then cut off into the lid plate. Spodoptera eggs were pipetted through a plastic stencil onto a humid gel blotting paper and the lid plate was closed with it. The samples were assessed for mortality, anti-feedant effect and growth inhibition in comparison to untreated samples 6 days after infestation.
The following compounds gave an effect of at least 80% control in at least one of the three categories (mortality, anti-feeding, or growth inhibition) at a test rate of 12.5 ppm: […]

Compound: CC(NC(=O)c1cc(C(F)(F)F)cc(S(=O)(=O)C2CC2)c1)c1nccnc1-n1nccn1 (centres unmarked) [Compound P40, 3-cyclopropylsulfonyl-N-[1-[3-(triazol-2-yl)pyrazin-2-yl]ethyl]-5-(trifluoromethyl)benzamide]
percent control (mortality, anti-feedant effect or growth inhibition) at 200 ppm [1]: ≥ 80%
percent control (mortality or growth inhibition) at 200 ppm [2]: ≥ 80%
mortality at 12 ppm [3]: ≥ 80%
percent control (mortality, anti-feedant effect or growth inhibition) at 200 ppm [4]: ≥ 80%
mortality at 500 ppm [5]: ≥ 80%
mortality at 50 ppm [6]: ≥ 80%

Compound: CC(NC(=O)c1cc(C(F)(F)F)cc(C2(C#N)CC2)c1)c1nccnc1-n1nccn1 (centres unmarked) [Compound P16, 3-(1-cyanocyclopropyl)-N-[1-[3-(triazol-2-yl)pyrazin-2-yl]ethyl]-5-(trifluoromethyl)benzamide]
percent control (mortality or growth inhibition) at 200 ppm [7]: ≥ 80%
percent control (mortality or growth inhibition) at 200 ppm [8]: ≥ 80%
percent control (mortality, anti-feedant effect or growth inhibition) at 200 ppm [1]: ≥ 80%
percent control (mortality or growth inhibition) at 200 ppm [2]: ≥ 80%
mortality at 12 ppm [3]: ≥ 80%
percent control (mortality, anti-feedant effect or growth inhibition) at 200 ppm [4]: ≥ 80%
mortality at 500 ppm [5]: ≥ 80%
mortality at 50 ppm [6]: ≥ 80%

Compound: CC(NC(=O)c1cc(C(F)(F)F)cc(C(F)(F)F)c1)c1nccnc1-n1nccn1 (centres unmarked) [Compound P49, N-[1-[3-(triazol-2-yl)pyrazin-2-yl]ethyl]-3,5-bis(trifluoromethyl)benzamide]
percent control (mortality or growth inhibition) at 200 ppm [7]: ≥ 80%
percent control (mortality or growth inhibition) at 200 ppm [8]: ≥ 80%
percent control (mortality, anti-feedant effect or growth inhibition) at 200 ppm [1]: ≥ 80%
percent control (mortality or growth inhibition) at 200 ppm [2]: ≥ 80%
percent control (mortality, anti-feedant effect or growth inhibition) at 200 ppm [4]: ≥ 80%
percent control (mortality, anti-feeding or growth inhibition) at 12.5 ppm [9]: ≥ 80%

melting point: 129 to 130 °C
Compound: CCOc1cc(C(=O)NC(C)c2nccnc2-n2nccn2)cc(Cl)n1 (centres unmarked) [Compound P21, 2-chloro-6-ethoxy-N-[1-[3-(triazol-2-yl)pyrazin-2-yl]ethyl]pyridine-4-carboxamide]

Compound: CC(NC(=O)c1cc(OC(F)F)cc(C(F)(F)F)c1)c1nccnc1-n1nccn1 (centres unmarked) [Compound P10, 3-(difluoromethoxy)-N-[1-[3-(triazol-2-yl)pyrazin-2-yl]ethyl]-5-(trifluoromethyl)benzamide]
percent control (mortality or growth inhibition) at 200 ppm [7]: ≥ 80%
percent control (mortality, anti-feedant effect or growth inhibition) at 200 ppm [1]: ≥ 80%
percent control (mortality or growth inhibition) at 200 ppm [2]: ≥ 80%
percent control (mortality, anti-feedant effect or growth inhibition) at 200 ppm [4]: ≥ 80%
percent control (mortality, anti-feeding or growth inhibition) at 12.5 ppm [9]: ≥ 80%
mortality at 500 ppm [5]: ≥ 80%
mortality at 50 ppm [6]: ≥ 80%

Compound: CC(NC(=O)c1cc(Br)cc(C(F)(F)F)c1)c1nccnc1-n1nccn1 (centres unmarked) [Compound P2, 3-bromo-N-[1-[3-(triazol-2-yl)pyrazin-2-yl]ethyl]-5-(trifluoromethyl)benzamide]
percent control (mortality or growth inhibition) at 200 ppm [7]: ≥ 80%
percent control (mortality or growth inhibition) at 200 ppm [8]: ≥ 80%
percent control (mortality, anti-feedant effect or growth inhibition) at 200 ppm [1]: ≥ 80%
percent control (mortality or growth inhibition) at 200 ppm [2]: ≥ 80%
percent control (mortality, anti-feedant effect or growth inhibition) at 200 ppm [4]: ≥ 80%
percent control (mortality, anti-feeding or growth inhibition) at 12.5 ppm [9]: ≥ 80%
mortality at 500 ppm [5]: ≥ 80%
mortality at 50 ppm [6]: ≥ 80%

Compound: CC(NC(=O)c1cc(Cl)nc(Cl)c1)c1nccnc1-n1nccn1 (centres unmarked) [Compound P29, 2,6-dichloro-N-[1-[3-(triazol-2-yl)pyrazin-2-yl]ethyl]pyridine-4-carboxamide]
percent control (mortality or growth inhibition) at 200 ppm [7]: ≥ 80%
percent control (mortality, anti-feedant effect or growth inhibition) at 200 ppm [1]: ≥ 80%
percent control (mortality or growth inhibition) at 200 ppm [2]: ≥ 80%
percent control (mortality, anti-feedant effect or growth inhibition) at 200 ppm [4]: ≥ 80%
percent control (mortality, anti-feeding or growth inhibition) at 12.5 ppm [9]: ≥ 80%
mortality at 500 ppm [5]: ≥ 80%
mortality at 50 ppm [6]: ≥ 80%

melting point: 142 to 145 °C
Compound: CCCc1cc(C(=O)NC(C)c2nccnc2-n2nccn2)cc(Cl)n1 (centres unmarked) [Compound P34, 2-chloro-6-propyl-N-[1-[3-(triazol-2-yl)pyrazin-2-yl]ethyl]pyridine-4-carboxamide]

melting point: 167 to 171 °C
Compound: Cc1cnc(C(C)NC(=O)c2cc(C(F)(F)F)cc(C(F)(F)F)c2)c(-n2ccnn2)n1 (centres unmarked) [Compound P43, N-[1-[5-methyl-3-(triazol-1-yl)pyrazin-2-yl]ethyl]-3,5-bis(trifluoromethyl)benzamide]

melting point: 126 to 129 °C
Compound: CCc1cc(C(=O)NC(C)c2nccnc2-n2nccn2)cc(Cl)n1 (centres unmarked) [Compound P31, 2-chloro-6-ethyl-N-[1-[3-(triazol-2-yl)pyrazin-2-yl]ethyl]pyridine-4-carboxamide]

Compound: CC(NC(=O)c1cc(OC(F)(F)F)cc(C(F)(F)F)c1)c1nccnc1-n1nccn1 (centres unmarked) [Compound P5, N-[1-[3-(triazol-2-yl)pyrazin-2-yl]ethyl]-3-(trifluoromethoxy)-5-(tifluoromethyl)benzamide]
percent control (mortality or growth inhibition) at 200 ppm [7]: ≥ 80%
percent control (mortality, anti-feedant effect or growth inhibition) at 200 ppm [1]: ≥ 80%
percent control (mortality or growth inhibition) at 200 ppm [2]: ≥ 80%
percent control (mortality, anti-feedant effect or growth inhibition) at 200 ppm [4]: ≥ 80%
percent control (mortality, anti-feeding or growth inhibition) at 12.5 ppm [9]: ≥ 80%
mortality at 500 ppm [5]: ≥ 80%

melting point: 128 to 129 °C
Compound: COc1cc(C)cc(C(=O)NC(C)c2nccnc2-n2nccn2)c1 (centres unmarked) [Compound P27, 3-methoxy-5-methyl-N-[1-[3-(triazol-2-yl)pyrazin-2-yl]ethyl]benzamide]

melting point: 154 to 155 °C
Compound: Cc1cc(F)cc(C(=O)NC(C)c2nccnc2-n2nccn2)c1 (centres unmarked) [Compound P37, 3-fluoro-5-methyl-N-[1-[3-(triazol-2-yl)pyrazin-2-yl]ethyl]benzamide]

Compound: CC(NC(=O)c1cc(Cl)cc(C(F)(F)F)c1)c1nccnc1-n1nccn1 (centres unmarked) [Compound P4, 3-chloro-N-[1-[3-(triazol-2-yl)pyrazin-2-yl]ethyl]-5-(trifluoromethyl)benzamide]
percent control (mortality or growth inhibition) at 200 ppm [7]: ≥ 80%
percent control (mortality or growth inhibition) at 200 ppm [8]: ≥ 80%
percent control (mortality, anti-feedant effect or growth inhibition) at 200 ppm [1]: ≥ 80%
percent control (mortality or growth inhibition) at 200 ppm [2]: ≥ 80%
percent control (mortality, anti-feedant effect or growth inhibition) at 200 ppm [4]: ≥ 80%
percent control (mortality, anti-feeding or growth inhibition) at 12.5 ppm [9]: ≥ 80%
mortality at 500 ppm [5]: ≥ 80%
mortality at 50 ppm [6]: ≥ 80%
